According to ChEMBL document CHEMBL5523764, “Discovery of NO Donor-Aurovertin Hybrids as Dual Ferroptosis and Apoptosis Inducers for Treating Triple Negative Breast Cancer” (J Med Chem, 2024):

Assays:
[1] = Cytotoxicity against human MCF-10A cells assessed as reduction in cell viability incubated for 72 hrs by MTT assay; assay type: toxicity, cell-based
[2] = test system: MDA-MB-231; assay: Antiproliferative activity against human MDA-MB-231 cells assessed as reduction in cell viability incubated for 72 hrs by MTT assay; assay type: functional, cell-based; details: MDA-MB-231, 72 h
[3] = test system: 4T1; assay: Antiproliferative activity against mouse 4T1 cells assessed as reduction in cell viability incubated for 72 hrs by MTT assay; assay type: functional, cell-based; details: 4T1, 72 h
[4] = Selectivity index, ratio of IC50 for cytotoxicity against human MCF-10A cells to IC50 for antiproliferative activity against human MDA-MB-231 cells; assay type: toxicity, cell-based; details: MCF-10A cells versus MDA-MB-231 cells, read-out: Ratio IC50

| Structure (SMILES) | IC50 [2] | IC50 [3] | IC50 at 72 h [1] | selectivity ratio [4] |
| --- | --- | --- | --- | --- |
| CC[C@H]1O[C@@]2(C)[C@H](OC(C)=O)[C@@]1(C)O[C@@H](/C=C/C=C/C=C/c1oc(=O)cc(OC)c1C)[C@@H]2OC(=O)CCCC(=O)OCc1c(-c2ccc(OC)cc2)no[n+]1[O-] | 3870 nM | 6720 nM | > 50 µM | > 13 |
| CC(=O)O[C@H]1C(=O)[C@@]2(C)[C@H]([C@H](OC(=O)c3ccccc3)[C@]3(O)C[C@H](OC(=O)[C@H](O)[C@@H](NC(=O)c4ccccc4)c4ccccc4)C(C)=C1C3(C)C)[C@]1(OC(C)=O)CO[C@@H]1C[C@@H]2O [PACLITAXEL] | 4550 nM | 3840 nM | 7.82 µM | 1.7 |
| CC[C@H]1O[C@@]2(C)[C@H](OC(C)=O)[C@@]1(C)O[C@@H](/C=C/C=C/C=C/c1oc(=O)cc(OC)c1C)[C@@H]2OC(=O)CCC(=O)ONC(=O)COCCOc1no[n+]([O-])c1S(=O)(=O)c1ccccc1 | 1500 nM | 3420 nM | > 50 µM | > 33 |
| CC[C@H]1O[C@@]2(C)[C@H](OC(C)=O)[C@@]1(C)O[C@@H](/C=C/C=C/C=C/c1oc(=O)cc(OC)c1C)[C@@H]2OC(=O)COCCOCCOc1no[n+]([O-])c1S(=O)(=O)c1ccccc1 | 500 nM | 770 nM | > 50 µM | > 100 |
| CC[C@H]1O[C@@]2(C)[C@H](OC(C)=O)[C@@]1(C)O[C@@H](/C=C/C=C/C=C/c1oc(=O)cc(OC)c1C)[C@@H]2OC(=O)CCCC(=O)OCc1c(-c2ccc(C)cc2)no[n+]1[O-] | 5720 nM | 7160 nM | > 50 µM | > 8 |
| CC[C@H]1O[C@@]2(C)[C@H](OC(C)=O)[C@@]1(C)O[C@@H](/C=C/C=C/C=C/c1oc(=O)cc(OC)c1C)[C@@H]2OC(=O)CCC(=O)ONC(=O)CCCOc1no[n+]([O-])c1S(=O)(=O)c1ccccc1 | 690 nM | 1550 nM | > 50 µM | > 72 |
| CC[C@H]1O[C@@]2(C)[C@H](OC(C)=O)[C@@]1(C)O[C@@H](/C=C/C=C/C=C/c1oc(=O)cc(OC)c1C)[C@@H]2OC(=O)CCCCCCCCCCCCCOc1no[n+]([O-])c1S(=O)(=O)c1ccccc1 | > 10000 nM |  |  |  |

Further compounds by falling IC50 [2], results first:

| IC50 [2] | IC50 [3] | Structure (SMILES) | IC50 at 72 h [1] | selectivity ratio [4] |
| --- | --- | --- | --- | --- |
| 4550 nM | 8330 nM | CC[C@H]1O[C@@]2(C)[C@H](OC(C)=O)[C@@]1(C)O[C@@H](/C=C/C=C/C=C/c1oc(=O)cc(OC)c1C)[C@@H]2OC(=O)CCCC(=O)OCc1c(-c2ccc(C(F)(F)F)cc2)no[n+]1[O-] | > 50 µM | > 10 |
| 1750 nM | 2700 nM | CC[C@H]1O[C@@]2(C)[C@H](OC(C)=O)[C@@]1(C)O[C@@H](/C=C/C=C/C=C/c1oc(=O)cc(OC)c1C)[C@@H]2OC(=O)CCC(=O)OCCOCCOc1no[n+]([O-])c1S(=O)(=O)c1ccccc1 | > 50 µM | > 28 |
| 1230 nM | 2720 nM | CC[C@H]1O[C@@]2(C)[C@H](OC(C)=O)[C@@]1(C)O[C@@H](/C=C/C=C/C=C/c1oc(=O)cc(OC)c1C)[C@@H]2OC(=O)CCC(=O)ONC(=O)CCCCOc1no[n+]([O-])c1S(=O)(=O)c1ccccc1 | > 50 µM | > 40 |
| 1230 nM | 2080 nM | CC[C@H]1O[C@@]2(C)[C@H](OC(C)=O)[C@@]1(C)O[C@@H](/C=C/C=C/C=C/c1oc(=O)cc(OC)c1C)[C@@H]2OC(=O)CCC(=O)OCC#CCOc1no[n+]([O-])c1S(=O)(=O)c1ccccc1 | > 50 µM | > 40 |
| 1050 nM | 1890 nM | CC[C@H]1O[C@@]2(C)[C@H](OC(C)=O)[C@@]1(C)O[C@@H](/C=C/C=C/C=C/c1oc(=O)cc(OC)c1C)[C@@H]2OC(=O)CCC(=O)ONC(=O)CCCCCOc1no[n+]([O-])c1S(=O)(=O)c1ccccc1 | > 50 µM | > 48 |
| 700 nM | 1230 nM | CC[C@H]1O[C@@]2(C)[C@H](OC(C)=O)[C@@]1(C)O[C@@H](/C=C/C=C/C=C/c1oc(=O)cc(OC)c1C)[C@@H]2OC(=O)CCCCCCCOc1no[n+]([O-])c1S(=O)(=O)c1ccccc1 | > 50 µM | > 71 |
